By MIC90 is commonly meant an inhibitory concentration at the 90% level, which refers to growth in some studies and to a panel of isolates in others.

Converted amounts (≈) assume the structure as drawn. Some results are limits rather than exact numbers.

Assay [1] has as its system Mycobacterium tuberculosis. Briefly: Antitubercular activity against multidrug-resistant Mycobacterium tuberculosis 12525 after 7 days by microplate alamar blue assay. Format: functional. The note with it: Mycobacterium tuberculosis, 12525, 168 h. On the technique in general: The colour change of resazurin is a common sign of viable cells or microbes.
Assay [2] concerns Mycobacterium tuberculosis. The experiment in a line: Antitubercular activity against multidrug-resistant Mycobacterium tuberculosis 14231 after 7 days by microplate alamar blue assay. The note with it: Mycobacterium tuberculosis, 14231, 168 h. Format: functional.

With `O=c1nc(N2CCC3(CCN(Cc4ccc(F)cc4)C3)CC2)sc2c([N+](=O)[O-])cc(C(F)(F)F)cc12`, the MIC90 was less than 0.035 µM in assay [1] and 0.034 µM (≈ 0.0178 µg/mL) in assay [2].
In the same order, the values of `O=c1nc(N2CCC3(CCN(Cc4cccc(F)c4)CC3)CC2)sc2c([N+](=O)[O-])cc(C(F)(F)F)cc12` are less than 0.035 µM and less than 0.035 µM.
In the same order, the values of `O=c1nc(N2CCC3(CCN(Cc4ccc(Br)cc4)CC3)CC2)sc2c([N+](=O)[O-])cc(C(F)(F)F)cc12` are 0.092 µM (≈ 0.055 µg/mL) and 0.086 µM (≈ 0.0514 µg/mL).
Turning to `COc1ccc(CN2CCC3(CCN(c4nc(=O)c5cc(C(F)(F)F)cc([N+](=O)[O-])c5s4)CC3)C2)cc1`, the results for the MIC90 in assay [1] and in assay [2] were 0.056 µM (≈ 0.0299 µg/mL) and 0.095 µM (≈ 0.0508 µg/mL), respectively.
In the same order, the values of `O=c1nc(N2CCC3(CCN(Cc4cc(F)cc(F)c4)CC3)CC2)sc2c([N+](=O)[O-])cc(C(F)(F)F)cc12` are less than 0.035 µM and less than 0.035 µM.
In the same order, the values of `O=c1nc(N2CCC3(CCN(Cc4ccc(C(F)(F)F)cc4)CC3)CC2)sc2c([N+](=O)[O-])cc(C(F)(F)F)cc12` are less than 0.035 µM and less than 0.035 µM.
In the same order, the values of `COc1ccc(CN2CC3(CCN(c4nc(=O)c5cc(C(F)(F)F)cc([N+](=O)[O-])c5s4)CC3)C2)cc1` are 0.119 µM (≈ 0.0619 µg/mL) and 0.123 µM (≈ 0.064 µg/mL).
For `O=c1nc(N2CCC3(CCN(Cc4ccccc4)C3)CC2)sc2c([N+](=O)[O-])cc(C(F)(F)F)cc12`, the MIC90 in assay [1] and in assay [2] was less than 0.035 µM in each case.
Take `CCOC(=O)CN1CCC2(CCN(c3nc(=O)c4cc(C(F)(F)F)cc([N+](=O)[O-])c4s3)CC2)C1`: the values for the MIC90 in assay [1] and in assay [2] were 0.08 µM (≈ 0.04 µg/mL) and 0.06 µM (≈ 0.03 µg/mL), respectively.
In the same order, the values of `NNC(=O)c1ccncc1` [ISONIAZID] are more than 292 µM and 34.5 µM (≈ 4.73 µg/mL).
On to `O=c1nc(N2CCN(CC3CCCCC3)CC2)sc2c([N+](=O)[O-])cc(C(F)(F)F)cc12` [MACOZINONE], for which the MIC90 in assay [1] and in assay [2] was less than 0.035 µM in each case.
On to `CO[C@H]1/C=C/O[C@@]2(C)Oc3c(C)c(O)c4c(O)c(c(/C=N/N5CCN(C)CC5)c(O)c4c3C2=O)NC(=O)/C(C)=C\C=C\[C@H](C)[C@H](O)[C@@H](C)[C@@H](O)[C@@H](C)[C@H](OC(C)=O)[C@@H]1C` [RIFAMPIN], for which the values for the MIC90 in assay [1] and in assay [2] were 27.2 µM (≈ 22.4 µg/mL) and more than 48.6 µM, respectively.

Values taken from ChEMBL document CHEMBL4033756, “Identification of Better Pharmacokinetic Benzothiazinone Derivatives as New Antitubercular Agents” (ACS Med Chem Lett, 2017).
